This note sets out measurements from PubChem BioAssay (NCI).

SMILES strings stand for the structures.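 1) Cells in 96-well plates. 2) Compound, 48 h, 5 concentrations. 3) Linear interpolation between surrounding doses. 4) Unreached endpoint = highest concentration. The concentration for full growth arrest is given as TGI.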

Some test systems named below: UO-31 renal; HL-60(TB) leukemia; M14 melanoma; MDA-N; MOLT-4 leukemia; PC-3 prostate; MDA-MB-435; OVCAR-5 ovarian; SK-MEL-2 melanoma; MDA-MB-231 breast.
What all share (assay): DTP human tumour cell line panel, 48 h

As for `CC(=O)Nc1nnc(S(C)(=O)=O)s1`, the concentration for total growth inhibition (TGI) in the assay with UO-31 renal, in the assay with HL-60(TB) leukemia, in the assay with M14 melanoma, in the assay on MDA-N, in the assay with MOLT-4 leukemia and with PC-3 prostate was greater than 100 µM in each case. The TGI with MDA-MB-435 and with OVCAR-5 ovarian was greater than 100 µM throughout.
Turning to `COc1cc(C2C(Cl)C(=O)N2NC(=O)c2ccc(N)cc2)cc(Br)c1O` (stereo not given), the TGI in the assay with UO-31 renal was 35.6 µM; in the assay with HL-60(TB) leukemia it was 27.6 µM; with M14 melanoma it was 29.2 µM; with MOLT-4 leukemia, 20 µM; in the assay with SK-MEL-2 melanoma, 32.3 µM; with OVCAR-5 ovarian, 38.8 µM.
For the compound `Brc1ccc2c(c1)-c1nc3nc4c(cc3cc1CC2)CCc1ccc(Br)cc1-4`, the TGI in the assay with UO-31 renal, in the assay on M14 melanoma, with MDA-N, in the assay with MOLT-4 leukemia, in the assay on PC-3 prostate and with SK-MEL-2 melanoma was greater than 100 µM in each case. For the same compound, the TGI in the assay on MDA-MB-231 breast, in the assay on MDA-MB-435 and with OVCAR-5 ovarian was greater than 100 µM in each case.
With `O=C(O)c1ccc(C2SCc3nc4ccccc4n32)cc1` (stereo not given), the concentration for total growth inhibition (TGI) with UO-31 renal, in the assay with HL-60(TB) leukemia, with M14 melanoma, in the assay on MDA-N, in the assay with MOLT-4 leukemia and in the assay with PC-3 prostate was greater than 100 µM throughout. For the same compound, the TGI in the assay on SK-MEL-2 melanoma, with MDA-MB-231 breast and with OVCAR-5 ovarian was greater than 100 µM throughout.
With `CSC12c3cc(C)n(-c4ccccc4)c3CC(C)(C)CN1C(=O)C2Oc1ccccc1` (stereo not given), the TGI in the assay on UO-31 renal, in the assay with M14 melanoma, in the assay on MOLT-4 leukemia, with PC-3 prostate, in the assay with SK-MEL-2 melanoma and in the assay with MDA-MB-231 breast was greater than 100 µM throughout. Besides, the TGI with MDA-MB-435 and in the assay on OVCAR-5 ovarian was greater than 100 µM throughout.
`C=CCOC(=O)C1=C(CCC[C@@H](C)O[Si](C)(C)C(C)(C)C)N=C(N)N2[C@H](CCO)CC[C@@H]12`: the total growth inhibition concentration (TGI) in the assay on UO-31 renal was 29.6 µM; with M14 melanoma it was 27.6 µM; with MDA-N, 32.9 µM; with MOLT-4 leukemia, 24.9 µM; with PC-3 prostate it was 20.8 µM; with SK-MEL-2 melanoma it was 30.3 µM. The figures for the TGI in the assay with MDA-MB-231 breast and in the assay with MDA-MB-435 were 29.6 µM and 27.8 µM, respectively.
Consider `Ic1cc2c(cc1C1SCCCS1)OCO2`, for which the TGI in the assay with UO-31 renal, in the assay with HL-60(TB) leukemia, with M14 melanoma, with MOLT-4 leukemia, in the assay on SK-MEL-2 melanoma and with OVCAR-5 ovarian was greater than 100 µM in each case.
For the compound `Nc1nc2c(ncn2Cc2ccccc2CO)c(=O)[nH]1`, the TGI in the assay with UO-31 renal, with HL-60(TB) leukemia, in the assay on M14 melanoma, in the assay with MOLT-4 leukemia, in the assay with PC-3 prostate and in the assay with SK-MEL-2 melanoma was greater than 100 µM throughout. In addition, the TGI in the assay on MDA-MB-231 breast, in the assay with MDA-MB-435 and in the assay on OVCAR-5 ovarian was greater than 100 µM each time.
Take `CC(C)(C)C1=CC(=C2C(=O)C(=O)c3ccccc3C2=O)C=C(C(C)(C)C)C1=O`: the TGI in the assay on UO-31 renal, with HL-60(TB) leukemia, in the assay on M14 melanoma, in the assay on SK-MEL-2 melanoma and in the assay with OVCAR-5 ovarian was greater than 100 µM throughout.
As to `Cc1cc(S(=O)(=O)/N=C(/[N-]S(=O)(=O)c2ccc(Cl)cc2)[n+]2ccc(N(C)C)cc2)c(SCC(=O)O)cc1Cl`, the TGI with UO-31 renal, with HL-60(TB) leukemia, with M14 melanoma, in the assay on MOLT-4 leukemia, in the assay with PC-3 prostate and in the assay with MDA-MB-231 breast was greater than 100 µM each time. In addition, the TGI in the assay on MDA-MB-435 and in the assay with OVCAR-5 ovarian was greater than 100 µM in each case.
`Cc1cccc(-c2cc(=O)c3c(C)cc(C)nc3[nH]2)c1`: the TGI in the assay on UO-31 renal was greater than 100 µM; in the assay with HL-60(TB) leukemia it was 4.34 µM; with M14 melanoma it was greater than 100 µM; in the assay on MOLT-4 leukemia it was greater than 100 µM; with PC-3 prostate it was greater than 100 µM; in the assay on SK-MEL-2 melanoma, greater than 100 µM. Also, the TGI with MDA-MB-231 breast was 31.8 µM; with OVCAR-5 ovarian, greater than 100 µM.
In the case of `O=Cc1ccc(CCl)cc1`, the TGI with UO-31 renal was 34.8 µM; in the assay with HL-60(TB) leukemia it was 23.9 µM; in the assay on M14 melanoma, 33.4 µM; with MOLT-4 leukemia it was greater than 100 µM; in the assay on SK-MEL-2 melanoma, 32.2 µM; in the assay with OVCAR-5 ovarian, 38.8 µM.
On to `FC(F)(Sc1ncc[nH]1)c1nc2ccccc2o1`, for which the TGI in the assay on UO-31 renal, in the assay with M14 melanoma, in the assay on MDA-N, in the assay with MOLT-4 leukemia, with PC-3 prostate and in the assay with SK-MEL-2 melanoma was greater than 100 µM throughout. Besides, the TGI in the assay on MDA-MB-231 breast, in the assay with MDA-MB-435 and in the assay with OVCAR-5 ovarian was greater than 100 µM throughout.
In the case of `O=C(OCc1ccccc1)N(CCCCN(CCCNCc1ccccc1)C(=O)OCc1ccccc1)CCCNCc1ccccc1`, the TGI in the assay with UO-31 renal was 2.75 µM; with HL-60(TB) leukemia, 0.507 µM; in the assay with MDA-N it was 0.983 µM; in the assay with PC-3 prostate, 2.61 µM; in the assay with SK-MEL-2 melanoma, 2.27 µM; in the assay on MDA-MB-231 breast, 2.56 µM. Besides, the TGI in the assay with MDA-MB-435 turned out to be 0.335 µM; in the assay with OVCAR-5 ovarian, 2.83 µM.
For the compound `COC(=O)C1(C(=O)OC)N=C(C)OC1/C=C/c1ccccc1` (stereo not given), the TGI in the assay on UO-31 renal, with HL-60(TB) leukemia, with M14 melanoma, in the assay on MDA-N, in the assay with MOLT-4 leukemia and in the assay on PC-3 prostate was greater than 100 µM each time. The TGI in the assay on SK-MEL-2 melanoma, in the assay on MDA-MB-435 and with OVCAR-5 ovarian was greater than 100 µM in each case.
Take `O=c1c2cc(Cl)cc(Cl)c2oc2nc3n(c(=O)c12)CCCS3`: the TGI is 40.4 µM in the assay with UO-31 renal; greater than 100 µM in the assay on M14 melanoma; greater than 100 µM in the assay with MDA-N; greater than 100 µM in the assay on MOLT-4 leukemia; greater than 100 µM with PC-3 prostate; greater than 100 µM in the assay on SK-MEL-2 melanoma. The TGI in the assay with MDA-MB-231 breast, with MDA-MB-435 and with OVCAR-5 ovarian was greater than 100 µM throughout.
